From patent US11491147B2, “Combination drug therapy reduces PARP-1 related DNA repair and increases the efficacy of genotoxic agents” (Indiana University Research and Technology Corporation, priority 2016, dated 2022)
Like-named read-outs stand apart in the source and are kept apart here.

Assays:
breast cancer cell lines = test: Survival of breast cancer cell lines, methylene blue staining assay (FIG. 24); assay type: cell-based, human; conditions: for performance against breast cancer cell lines, compared with lansoprazole: non-FDA-approved PPIs, different breast cancer cell lines; for activity in suppressing breast cancer cell survival, compared with lansoprazole: lansoprazole metabolites, MCF7, MDA-MB-231, MDA-MB-468 cells
Source text: (§1) FIG. 24. […] Actin was used as a loading control. D. effect of non-approved PPIs on the survival of breast cancer cell lines.

M/FASN cells = test: MTT survival assay, M/FASN cells; assay type: cell-based, human
Method: FIG. 5. PARP-1 mediates FASN-associated DNA repair and genotoxic treatment resistance. A-B, Effect of FASN on PARP-1 expression as determined by Western blot (A) and real-time RT-PCR (B) in stable FASN-over-expressing and -knockdown cells. C, Effect of FASN on IR-induced histone-H3 PARylation. Cells were pre-treated without or with 0.5 μM olaparib followed by treatment with or without IR and harvested at different times following IR for lysate preparation, immunoprecipitation of histone-H3 in the presence of 100 μM PARG inhibitor, gallotannin, and Western blot analyses of PARylated and total histone H3. D, Effect of PARP-1 knockdown on FASN-induced NHEJ up-regulation. FASN-over-expressing (P/FASN) and the control (P/Vec) cells were transiently transected with PARP-1 or scrambled control siRNA followed by Western blot analysis of PARP-1 (left panel) and NHEJ activity assay (right panel) (n=3, *p<0.05; **p<0.01). E, Effect of PARP-1 inhibition on survival. M/FASN cells were treated with 1 mM 3-ABA, 0.5 μM olaparib, or their vehicle control for 48 hours followed by MTT assay. F, Effect of PARP-1 inhibition on doxorubicin resistance. M/FASN cells were pre-treated for 6 hours by 1 mM 3-ABA, 0.5 μM olaparib, or transfected with control or PARP-1 siRNA followed by tested doxorubicin resistance using MTT survival assay. (n=3-4, *p<0.05, **p<0.01).
To determine if FASN enhancement of PARP-1 likely mediates FASN function in cellular resistance to DNA damages, a survival assay of […] cells following doxorubicin treatment in the absence or presence of PARP-1 inhibitors, 3-ABA (3-aminobenzamide) or olaparib was carried out. Now referring to FIG. 5E, either 1 mM 3-ABA or 0.5 μM olaparib alone had no effect on M/FASN cell survival.
MTT survival assay was performed as previously described (see e.g., Yang Y, Chen Q, & Zhang J T (2002) Structural and functional consequences of mutating cysteine residues in the amino terminus of human multidrug resistance-associated protein 1. J. Biol. Chem. 277(46):44268-44277). Briefly, cells in 96-well plate were cultured for 24 hours and treated with various concentrations of doxorubicin, bleomycin, cisplatin or H2O2 continuously for 3 days followed by addition of thiazolyl blue tetrazolium bromide (MTT) to a final concentration of 0.5 mg/mL and incubation at 37° C. for 4 hours. Medium was then removed and formazan was solubilized in dimethyl sulfoxide and the OD570 was measured by a Synergy H1 hybrid reader (BioTek, Winooski, Vt.). IC50's were obtained from the fitted curves generated by GraphPad Prism 5.0 program (GraphPad Software, Inc.). Relative resistance factor (RRF) is calculated using the formula RRF=IC50 (test)/IC50 (control) with control normalized as 1. […]

breast cancer patients = test: Retrospective survival analysis of electronic medical records of breast cancer patients; assay type: in vivo, human
Method: FIG. 16. Retrospective survival analysis of breast cancer patients with or without use of proton pump inhibitors (PPIs). De-identified electronic medical records of 6,752 breast cancer patients were retrieved from the database of Indiana Network for Patient Care (INPC) and subjected to Kaplan-Meier survival analysis in association with PPI usage in all patients (A) or in triple negative breast cancer patient subgroup (B). The p-value and hazard ratio (HR) were calculated from Cox proportional hazard models, which were adjusted for age, tumor stage, and time of first diagnosis.
Because PPIs are widely used for treatment of a variety of acid-related digestive disorders, many cancer patients may use PPIs without the knowledge that the combination of PPIs with their chemotherapy may have helped them. To this end, a retrospective association analysis was conducted using de-identified electronic medical records (EMR) of 6,752 breast cancer patients from Indiana Network for Patient Care (INPC). The average age at diagnosis is 58.9 years (range 19-102) and average age at death or last visit is 61.5 (range 21-104). Of this cohort, 534 patients took one or more PPIs after diagnosis as recorded in the EMR. There are 488 triple negative breast cancer (TNBC) patients, among them 35 used PPIs. Using the Cox proportional hazard regression model, the patient overall survival was analyzed against PPI usage. […] The protective effect of PPIs on patient survival was adjusted for age, tumor stage, and time of first diagnosis.
The patient database contains three domains of electronic medical records (EMR) of 6,752 de-identified breast cancer patients from Indiana Network for Patient Care (INPC). The first domain contains patient characteristics as shown in Supplemental Table 51. The second domain contains medical test results including body weight, blood tests, and office visit information. The third domain contains prescription information for each patient. The use of this database has been approved by IRB at Indiana University for this study.
The first task is to remove null and duplicated values and to resolve contradicting records. For patients that have contradicting records, different rules for different conflicts were followed. For conflicts on the first visit or diagnosis time, the earlier record at younger age were used as the first diagnosis and considered the later one as system update. For all other information including diagnosis information such as cancer subtype, the latest record was used as it is thought to be more accurate.
Next, the plain text information from the first domain of the database including but not limited to ER, PR, and HER2 test results, treatment plans, and therapy types were digitized. The record that is not clear was marked as unknown. For example, the HER2 status with a 2+ score, a borderline score, from IHC staining was usually confirmed with FISH test. Patients with a 2+ score but without a FISH test result were considered unknown in this study.
Further, the days of patient survival from data in the first domain were validated using prescription history of the same patient in the third domain of the database. When there is a conflict, the last day of office visit or prescription refill, whichever is later, was recorded as the last day of visit or death. Moreover, patients who took PPIs prior to their diagnosis of breast cancer but stopped taking them after diagnosis were considered non-PPI users in this study.

PARP1 and γ-H2AX = test: Western blot of PARP1 and γ-H2AX (FIG. 24C); assay type: cell-based; conditions: dose-dependent
Method: as §1
Cells were harvest and then lysed in TNN buffer with 1 mM DTT, 1 mM PMSF and 0.1% SDS for 30 min at 4° C. with occasional agitation. The cells were sonicated briefly and total proteins were harvested after centrifugation of the lysate at 16,000 g for 15 minutes at to remove cell debris. The protein concentration of cell lysates was determined using a Bio-Rad protein assay kit. Total cell lysates were then separated by SDS-PAGE, transferred to a polyvinylidene fluoride membrane, and probed using antibodies against fatty acid synthase (610963, BD biosciences), PARP-1 (46D11, CST), γ-H2AX (05-636, Millipore), and (3-Actin (A2228, Sigma). The blot was then probed with horseradish peroxidase-conjugated secondary antibodies (Sigma) and signals were captured on X-ray films following developing with Amersham ECL Western Blotting Detection Reagent (RPN2106, GE).

MCF7 cells = test: Colony formation survival assay, MCF7 cells; assay type: cell-based, human; conditions: Homo sapiens
Method: FIG. 15. […] B. Combination index. Combination index (CI) was derived using the data shown in A and the formula: […]
For each potency ratio, combination index of three effective concentrations at IC30, IC50, and IC70 were calculated for synergistic effects using Prism 7.0.
Cells were then harvested and re-plated in 6-well plates at a density of 200 cells/well followed by IR treatment at different doses and colony formation assay or collection of cells for Western blot analysis. Concentration-response curves and IC50 values were calculated using Prism 7.0 (GraphPad, La Jolla, USA).

[1] = pairwise versus Lansoprazole users, all patients
[2] = pairwise versus Omeprazole users, all patients
[3] = pairwise versus Pantoprazole users, all patients
[4] = single-PPI users versus No PPI, all breast cancer patients
[5] = versus Lansoprazole, CA patients
[6] = versus No PPI, Caucasian (CA) patients
[7] = versus Pantoprazole, CA patients
[8] = versus No PPI, African American (AA) patients
[9] = versus Lansoprazole, AA patients

## COc1ccc2[nH]c([S+]([O-])Cc3ncc(C)c(OC)c3C)nc2n1 (stereo not shown) [tenatoprazole]
Breast cancer cell lines
  performance against breast cancer cell lines, compared with lansoprazole: performed better than lansoprazole only against some cell lines

## Cc1c(OCC(F)(F)F)ccnc1CS(=O)(=O)c1nc2ccccc2[nH]1 [lansoprazole sulfone]
Breast cancer cell lines
  activity in suppressing breast cancer cell survival, compared with lansoprazole: lost their activity

## NC(=O)c1cccc(N)c1 [3-ABA, 3-aminobenzamide]
M/FASN cells; 1 mM 3-ABA or 0.5 μM olaparib alone, 48 hours
  effect on M/FASN cell survival: no effect
M/FASN cells; pre-treated for 6 hours by 1 mM 3-ABA or 0.5 μM olaparib
  doxorubicin resistance level of M/FASN cells: significantly reduced

## COCCCOc1ccnc(C[S+]([O-])c2nc3ccccc3[nH]2)c1C (stereo not shown) [rabeprazole]
Breast cancer patients; [1]
  HR (CoxPH ratio), overall survival: 2.13
Breast cancer patients; [2]
  HR (CoxPH ratio), overall survival: 1.50
Breast cancer patients; [3]
  HR (CoxPH ratio), overall survival: 1.43
Breast cancer patients; [4]
  HR (CoxPH ratio), overall survival: 0.47
Breast cancer patients; [5]
  HR, overall survival: 1.99
Breast cancer patients; [6]
  HR, overall survival: 0.5031
Breast cancer patients; versus Omeprazole, CA patients
  HR, overall survival: 1.77
Breast cancer patients; [7]
  HR, overall survival: 2.57

## Cc1c(OCC(F)(F)F)ccnc1CSc1nc2cc(O)ccc2[nH]1 [5-hydroxy lansoprazole sulfide]
PARP1 and γ-H2AX
  PARP1 expression: inhibited PARP1 expression
  production of γ-H2AX: induced production of γ-H2AX in a dose-dependent manner
Breast cancer cell lines; triple negative breast cancer cell lines
  suppression of triple negative breast cancer cell survival, compared with lansoprazole: significantly more effective than lansoprazole

## COc1ccc2[nH]c([S+]([O-])Cc3ncc(C)c(OC)c3C)nc2c1 (stereo not shown) [omeprazole]
Breast cancer patients; [4]
  HR (CoxPH ratio), overall survival: 0.28
Breast cancer patients; [8]
  HR, overall survival: 0.33
Breast cancer patients; [6]
  HR, overall survival: 0.27
MCF7 cells; MCF7, read-out: IC50, cell survival, single agent, MCF7 cells, colony formation
  IC50: 3100 nM
MCF7 cells; MCF7, read-out: IC50 of omeprazole in the presence of olaparib, in the presence of 0.1 μM olaparib, MCF-7 cells
  IC50: 1000 nM
MCF7 cells; MCF7, read-out: IC50 of omeprazole in the presence of olaparib, in the presence of 0.3 μM olaparib, MCF-7 cells
  IC50: 400 nM

## Cc1c(OCC(F)(F)F)ccnc1CSc1nc2ccccc2[nH]1 [lansoprazole sulfide]
Breast cancer cell lines
  activity in suppressing breast cancer cell survival, compared with lansoprazole: lost their activity

## Cc1c(OCC(F)(F)F)ccnc1C[S+]([O-])c1nc2ccc(O)cc2[nH]1 (stereo not shown) [5-hydroxy lansoprazole]
Breast cancer cell lines
  activity in suppressing breast cancer cell survival, compared with lansoprazole: lost their activity

## COc1ccnc(C[S+]([O-])c2nc3ccc(OC(F)F)cc3[nH]2)c1OC (stereo not shown) [pantoprazole]
Breast cancer patients; [1]
  HR (CoxPH ratio), overall survival: 1.43
Breast cancer patients; [2]
  HR (CoxPH ratio), overall survival: 1.11
Breast cancer patients; [4]
  HR (CoxPH ratio), overall survival: 0.32
Breast cancer patients; [9]
  HR, overall survival: 9.89*10^8
Breast cancer patients; [5]
  HR, overall survival: 0.59
Breast cancer patients; [8]
  HR, overall survival: 0.59
Breast cancer patients; [6]
  HR, overall survival: 0.18
Breast cancer patients; versus Omeprazole, AA patients
  HR, overall survival: 1.85
Breast cancer patients; versus Omeprazole, CA patients
  HR, overall survival: 0.66

## anaprazole
Breast cancer cell lines
  performance against breast cancer cell lines, compared with lansoprazole: performed better than lansoprazole only against some cell lines

## COc1ccc2nc([S@@+]([O-])Cc3ncc(C)c(OC)c3C)[nH]c2c1 [Esomeprazole, esomeprazole]
Breast cancer patients; [1]
  HR (CoxPH ratio), overall survival: 2.57
Breast cancer patients; [2]
  HR (CoxPH ratio), overall survival: 1.6
Breast cancer patients; [3]
  HR (CoxPH ratio), overall survival: 1.44
Breast cancer patients; pairwise versus Rabeprazole users, all patients
  HR (CoxPH ratio), overall survival: 0.92
Breast cancer patients; [4]
  HR (CoxPH ratio), overall survival: 0.44
Breast cancer patients; [9]
  HR, overall survival: 7.79*10^7
Breast cancer patients; [5]
  HR, overall survival: 1.74
Breast cancer patients; [8]
  HR, overall survival: 0.49
Breast cancer patients; [6]
  HR, overall survival: 0.35
Breast cancer patients; versus Omeprazole, AA patients
  HR, overall survival: 1.47
Breast cancer patients; versus Pantoprazole, AA patients
  HR, overall survival: 0.84
Breast cancer patients; [7]
  HR, overall survival: 2.08
Breast cancer patients; versus Rabeprazole, CA patients
  HR, overall survival: 0.66
